Series [1] concerns C57BL/6 mouse embryos. Particulars: in vivo.
Series [2] has as its system wound area of mouse dorsum. Description: Mouse 3-mm excisional wound model with topical creams (FN, β-catenin, Lgr6 localization). The class given is in vivo. To be noted: higher folate diet 10 mg/kg from one week prior to wounding. The text has this: For the mouse studies the animals were divided by random assignment into experimental groups, using both sexes. Folic acid and folic acid/myo-inositol in combination were topically administered to the wound directly with an inert vanishing cream (provided by Carrollwood Pharmacy) as the vehicle of administration or also in combination with an orally administered dietary folic acid supplement. […] The creams contained (i) FA only; two doses of […] combination of higher MI to FA ratio, (iii) a combination of lower MI to FA ratio, (iv) MI only and (v) vehicle control cream. […] The control animals were maintained on normal animal chow containing 3.3 mg/kg FA to maintain health of the animals. After wounding, animals were housed separately and maintained on their respective folate diets. The animals were maintained in cages that were wood chip free on a dust free base for the first several days, to prevent bedding and bedding dust from getting into the freshly made wounds to lessen chances of infection. The animals were anesthetized using isoflurane inhalation. One 3-mm excisional circular wound was made using a dermal biopsy punch, followed by application of the experimental or control topical cream on the wound. The excised area remained uncovered and healing was closely monitored daily until wound was closed. At day 15 after wounding, the animal was euthanized. […]

Series [3] deals with C57BL/6 mouse embryos. The experiment in a line: Morphometric measurements, resorptions and lethality of mouse embryos after Li or HCy exposure, FA rescue. Format: in vivo. To be noted: for Resorptions (percent): hydrochloride. The text has this:
To determine whether the results in the avian system would extend to the mammalian system, the inventors conducted studies in the mouse embryo. All mice were maintained according to protocols approved by the Institutional Animal Care and Use Committee at the University of South Florida. The C57BL/6 mouse strain (Jackson Laboratories, Bar Harbor, Me.) was used throughout the study. E0.5 was defined as the morning when the vaginal sperm plug was detected. Timed pregnant mice were randomly allocated to receive a single dose of 100 μl of 6.25 mg/ml Li chloride, as determined previously (Chen et al., 2008), 100 μl of 75 μM HCy, or 100 μl of 6.25 mg/ml sodium chloride (control group); all treatments were given intraperitoneally (i.p). On E15.5, the utero-placental circulation of the pregnant mice, and the central and peripheral circulations of the embryos were examined non-invasively in utero using Doppler ultrasonography (Gui et al., 1996; Linask and Huhta, 2000). Sixty-eight embryos were exposed to Li, 59 to HCy and 42 to physiological saline.
An HCy concentration of 75 μM, used for maternal exposure, was determined empirically using different doses of HCy (i.e. 150, 75, 50 and 15 μM). The minimal teratogenic dose was determined to be 75 μM. […] The single i.p. injection of HCy at E6.75 produced a high number of valve defects (66%), as well as resorptions (46%). […] Because not all embryos within litters are at exactly the same stage of development, the variability of effects seen with either Li or HCy probably reflects the differences in developmental stage.
Following echo monitoring on E15.5, placental weight and morphometric measurements of crown-rump length and body weight were obtained. […] HCy administered on E6.75 induced valve defects in 66.1% of the embryos (39/59 embryos). Some litters were allowed to develop to E18.5.

The test system of a further series is E15.5 mouse hearts. The experiment in a line: Histology of HCy-exposed E15.5 mouse hearts. Format: in vivo. Particulars: single HCy exposure on E6.75. On the procedure: Li- and HCy-exposed embryos, and control NaCl-exposed embryos, were fixed in 4% paraformaldehyde in phosphate buffered saline (PBS, pH 7.4) and paraffin sectioned. Sections were stained with hematoxylin-eosin, and some were stained with Toluidine Blue, and examined. Cardiac regions were analyzed for the presence of any obvious malformations using a Nikon SMZ1500 fluorescent stereomicroscope, and digitized images were obtained using a Nikon DS-L2 camera unit.
Malformed and small aortic valves (AoV in H) and pulmonary valves (PV in I) were apparent. […] This was exemplified by a post-stenotic dilatation of the pulmonary artery, apparent in FIG. 12L. […] In summary, in addition to the general cardiac hypertrophy, the viable cardiac anomalies that were observed on E15.5 following a single HCy exposure on E6.75 related primarily to derivatives of the SHF, that is the outflow, the right ventricle, and the tricuspid and SL valves.

These results are taken from US9308210B2, “Method for modulating canonical Wnt pathway using folate and inositol” (University of South Florida, priority 2009, dated 2016).

Molecules are shown by their SMILES. Where a name gives a salt, the structure may show the parent alone.

Take `Nc1nc2ncc(CNc3ccc(C(=O)N[C@@H](CCC(=O)O)C(=O)O)cc3)nc2c(=O)[nH]1` [FA, folic acid]: in the series with C57BL/6 mouse embryos [1], the DAPI is 1.82, the DVPI amounted to 1.04, the “E/A Ratio” value is given as 0.28 and the HR is 191 bpm. Moreover, in the series with C57BL/6 mouse embryos [1], the ICT % amounted to 7.32%, the IRT % amounted to 12.82%, the MPI was 0.50 and the OF came to 34.30 cm/s. In the series with C57BL/6 mouse embryos [1], this compound came in with an RR of 314 ms and a UAPI of 1.71. Also, the “healing with dietary supplementation” value in series [2] is “no differences in healing”.

On to `N[C@H]1CCSC1=O` [HCy, L-homocysteine thiolactone hydrochloride], for which, in the series on C57BL/6 mouse embryos [3] (E15.5 after exposure on E6.75), the “Body Weight” value is given as 0.35 g, the CRL is listed as 13 mm and the “Placenta Weight” value worked out at 0.11 g. This compound also returned an embryonic lethality with C57BL/6 mouse embryos [3] (acute single dose of HCy at E5.5) of 79%. In the series with C57BL/6 mouse embryos [3] (exposure on E6.75), the “Resorptions (embryos/total)” value was 27/59 and the “Resorptions (percent)” value stood at 46%. Besides, the “Resorptions (percent)” value in the series on C57BL/6 mouse embryos [3] (exposure on E6.75, listed as HCys) came out at 45.7%. Also, in the series with C57BL/6 mouse embryos [3] (single exposure on E6.75, E15.5), the “placental weight, crown-rump length and body weight versus control embryos” value is given as “significantly decreased”. For the same compound, in the series with E15.5 mouse hearts, the “cardiac pathology on E15.5” value is “right and left side cardiac hypertrophy”.
